This is an account of results in the supplement of paper PMC10949913.

Holding throughout (details): 48 h
The subject of experiment [1] is CU-ACC2. The experiment is described as follows: AC50 viability; higher = less potent. Put shortly: (§1)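 Luminescence from CellTiter-Glo, read after 48 h, measured three adrenocortical carcinoma cell lines treated in 1,536-well plates with library compounds at 11 concentrations. Values were normalised per plate to vehicle and empty-well controls. The AC50 and area under the curve come from fitted concentration-response curves in inhibitory or non-responding classes only.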

Experiment [2] relates to NCI-H295R. The experiment can be described thus: AC50 viability; higher = less potent. Put shortly:
as §1

The test system of experiment [3] is CU-ACC1. The experiment can be described thus: area under concentration-response curve (viability) (AUC (a.u.)); higher = less active. Put shortly:
as §1

The subject of experiment [4] is CU-ACC2. The experiment is described as above. Put shortly:
as §1

Experiment [5] relates to NCI-H295R. Described as above. Put shortly: as §1

Consider `COC(=O)[C@@]12OC[C@]34[C@H]([C@@H](O)[C@@H]1O)[C@@]1(C)CC(=O)C(O)=C(C)[C@@H]1C[C@H]3OC(=O)[C@H](OC(=O)/C=C(\C)C(C)C)[C@@H]24`, for which the AC50 viability in experiment [1] amounted to 0.0417 µM; in experiment [2] it was 0.263 µM. Moreover, the “area under concentration-response curve” value was 251 in experiment [3], 280 in experiment [4] and 316 in experiment [5].
The corresponding values for `N=C(NCCCCCCNC(=N)NC(=N)Nc1ccc(Cl)cc1)NC(=N)Nc1ccc(Cl)cc1` are 23.5 µM, 14.8 µM, 511, 573 and 443.
In the case of `COc1ccc2[nH]c3c(c2c1)CCN[C@]31CS[C@@H]2c3c(OC(C)=O)c(C)c4c(c3[C@H](COC1=O)N1[C@@H]2[C@H]2c3c(cc(C)c(OC)c3O)C[C@@H]([C@@H]1O)N2C)OCO4`, the AC50 viability in experiment [1] and in experiment [2] was 0.00762 µM in each case. Also, the “area under concentration-response curve” value was found to be 178 in experiment [3], 187 in experiment [4] and 161 in experiment [5].
Regarding `CC(=O)O[C@@]12CO[C@@H]1C[C@H](O)[C@@]1(C)C(=O)[C@H](O)C3=C(C)[C@@H](OC(=O)[C@H](O)[C@@H](NC(=O)OC(C)(C)C)c4ccccc4)C[C@@](O)([C@@H](OC(=O)c4ccccc4)[C@H]21)C3(C)C`, the figures for the AC50 viability in experiment [1] and in experiment [2] were 20.9 µM and 0.417 µM, respectively. Further, the figures for the “area under concentration-response curve” value in experiment [3], in experiment [4] and in experiment [5] were 302, 334 and 270, respectively.
Turning to `COc1cccc2c1C(=O)c1c(O)c3c(c(O)c1C2=O)C[C@@](O)(C(=O)CO)C[C@@H]3O[C@H]1C[C@H](N)[C@H](O)[C@H](C)O1`, the values for the AC50 viability in experiment [1] and in experiment [2] were 5.9 µM and 16.6 µM, respectively. The “area under concentration-response curve” value was 461 in experiment [3], 485 in experiment [4] and 452 in experiment [5].
On to `N#Cc1ccc2c(c1)CN([S+](=O)([O-])c1cccs1)[C@H](Cc1ccccc1)CN2Cc1cnc[nH]1`, for which the AC50 viability in experiment [1] amounted to 0.833 µM; in experiment [2] it was 8.33 µM. The “area under concentration-response curve” value came out at 350 in experiment [3], 405 in experiment [4] and 485 in experiment [5].
On to `N[S+](=O)([O-])c1cccc2c1C(=O)c1cccc(O)c1C2=O`, for which the AC50 viability in experiment [1] and in experiment [2] was 0.661 µM each time. Moreover, the “area under concentration-response curve” value amounted to 315 in experiment [3], 380 in experiment [4] and 370 in experiment [5].
As for `C[C@H]1CNC(=O)c2cnn3ccc(nc23)N[C@H](C)c2cc(F)ccc2O1`, the AC50 viability in experiment [1] was 6.61 µM; in experiment [2], 2.35 µM. For the same compound, the “area under concentration-response curve” value stood at 523 in experiment [3], 475 in experiment [4] and 454 in experiment [5].
Turning to `CN1C/C=C/CCOc2cccc(c2)-c2ccnc(n2)Nc2cccc(c2)C1`, the values for the AC50 viability in experiment [1] and in experiment [2] were 0.0525 µM and 0.235 µM, respectively. The figures for the “area under concentration-response curve” value in experiment [3], in experiment [4] and in experiment [5] were 208, 165 and 164, respectively.
For the compound `N[S+](=O)([O-])OC[C@@H]1C[C@@H](n2ccc3c(N[C@H]4CCc5ccccc54)ncnc32)C[C@@H]1O`, the results for the AC50 viability in experiment [1] and in experiment [2] were 0.468 µM and 1.66 µM, respectively. In addition, the “area under concentration-response curve” value in experiment [3] amounted to 467; in experiment [4], 360; in experiment [5], 468.
Regarding `CN(C)Cc1ccc([S+](=O)([O-])n2ccc(/C=C/C(=O)NO)c2)cc1`, the AC50 viability in experiment [1] came out at 9.34 µM; in experiment [2], 16.6 µM. For the same compound, the “area under concentration-response curve” value worked out at 461 in experiment [3], 496 in experiment [4] and 465 in experiment [5].
For `CCN(CC)CCNc1ccc(C)c2sc3ccccc3c(=O)c12`, the AC50 viability in experiment [1] and in experiment [2] was 20.9 µM throughout. Also, the “area under concentration-response curve” value was found to be 447 in experiment [3], 489 in experiment [4] and 456 in experiment [5].
Regarding `Cc1nc([C@](C)(O)CO)sc1-c1cnc(N)c(O[C@H](C)c2cc(F)ccc2-n2nccn2)c1`, the AC50 viability worked out at 1.86 µM in experiment [1] and 2.63 µM in experiment [2]. The “area under concentration-response curve” value in experiment [3] was 480; in experiment [4] it was 520; in experiment [5], 421.
`Cc1ccc(C(=O)Nc2ccc(CN3CCN(C)CC3)c(C(F)(F)F)c2)cc1C#Cc1cnc2[nH]ncc2c1`: the AC50 viability in experiment [1] and in experiment [2] was 8.33 µM in each case. In addition, the “area under concentration-response curve” value was determined as 441 in experiment [3], 427 in experiment [4] and 392 in experiment [5].
In the case of `O=C1Nc2cc(Br)ccc2/C1=C1/Nc2ccccc2/C1=N\O`, the figures for the AC50 viability in experiment [1] and in experiment [2] were 18.6 µM and 23.5 µM, respectively. Further, the results for the “area under concentration-response curve” value in experiment [3], in experiment [4] and in experiment [5] were 480, 515 and 511, respectively.
As to `N#Cc1cc2cc(CN3CCC(Nc4ncnc5sc(CC(F)(F)F)cc45)CC3)c(O)cc2n1Cc1cn[nH]c1`, the AC50 viability in experiment [1] and in experiment [2] was 18.6 µM throughout. Besides, the results for the “area under concentration-response curve” value in experiment [3], in experiment [4] and in experiment [5] were 527, 565 and 501, respectively.
For the compound `COCCNCc1ccc(-c2cc3nccc(Oc4ccc(NC(=S)NC(=O)Cc5ccc(F)cc5)cc4F)c3s2)nc1`, the results for the AC50 viability in experiment [1] and in experiment [2] were 7.42 µM and 4.68 µM, respectively. Also, the “area under concentration-response curve” value in experiment [3] stood at 436; in experiment [4] it was 444; in experiment [5], 388.
Consider `CC[S+](=O)([O-])Nc1ccc2c(c1)/C(=C(/Nc1ccc(CN3CCCCC3)cc1)c1ccccc1)C(=O)N2`, for which the values for the AC50 viability in experiment [1] and in experiment [2] were 3.32 µM and 5.25 µM, respectively. Further, the entries for the “area under concentration-response curve” value in experiment [3], in experiment [4] and in experiment [5] were 447, 425 and 408, respectively.
`C[C@H]1[C@H](OC(=O)CCC(=O)O)O[C@@H]2O[C@@]3(C)CC[C@H]4[C@H](C)CC[C@@H]1[C@@]24OO3`: the AC50 viability in experiment [1] and in experiment [2] was 20.9 µM each time. Moreover, the “area under concentration-response curve” value in experiment [3] amounted to 354; in experiment [4], 585; in experiment [5] it was 522.
As for `Clc1ccc(C(Cn2ccnc2)OCc2c(Cl)cccc2Cl)c(Cl)c1` (stereo not given), the results for the AC50 viability in experiment [1] and in experiment [2] were 18.6 µM and 20.9 µM, respectively. For the same compound, the “area under concentration-response curve” value in experiment [3] turned out to be 371; in experiment [4] it was 525; in experiment [5], 473.
The corresponding values for `O=C(c1ccc(/C=C/c2n[nH]c3ccccc23)cc1)N1CCNCC1` are 20.9 µM, 0.263 µM, 423, 391 and 397.
The corresponding values for `CN1CCC(C1CO)C2=C(O)C=C(O)C3=C2O\C(=C/C3=O)C4=CC=CC=C4Cl` (stereo not given) are 0.833 µM, 3.32 µM, 431, 417 and 422.
